Tests used:
Acetylcholinesterase [1] = target: T1, Acetylcholinesterase (Homo sapiens, UniProt P22303); test: Inhibition of human recombinant AChE-induced amyloid beta (1-40) aggregation assessed as fibril formation after 24 hrs by thioflavin T-based fluorometric assay
Acetylcholinesterase [2] = target: T1, Acetylcholinesterase; test: Inhibition of human recombinant AChE using acetylthiocholine iodide as substrate after 20 mins preincubation by Ellman method

T1 sequence (P22303 whole entry): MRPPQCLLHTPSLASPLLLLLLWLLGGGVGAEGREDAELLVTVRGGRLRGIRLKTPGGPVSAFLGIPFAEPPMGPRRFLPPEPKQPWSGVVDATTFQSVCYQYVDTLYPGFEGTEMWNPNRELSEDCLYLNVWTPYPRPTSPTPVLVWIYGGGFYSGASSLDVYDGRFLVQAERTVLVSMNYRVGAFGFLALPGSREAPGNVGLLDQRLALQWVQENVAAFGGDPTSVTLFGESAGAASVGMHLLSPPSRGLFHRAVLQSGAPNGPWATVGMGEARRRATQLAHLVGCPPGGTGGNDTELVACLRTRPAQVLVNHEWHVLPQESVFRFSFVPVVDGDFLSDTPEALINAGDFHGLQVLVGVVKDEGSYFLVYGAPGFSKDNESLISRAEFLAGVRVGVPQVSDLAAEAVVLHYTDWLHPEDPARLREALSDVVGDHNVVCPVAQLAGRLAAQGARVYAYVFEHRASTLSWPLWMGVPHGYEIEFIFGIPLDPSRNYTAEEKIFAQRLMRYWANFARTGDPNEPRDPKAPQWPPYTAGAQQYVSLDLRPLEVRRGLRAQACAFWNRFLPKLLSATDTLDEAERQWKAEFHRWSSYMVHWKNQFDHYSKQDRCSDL

CCN(CCCCCC=Nc1cc(O)c2ccccc2c1O)Cc1ccccc1OC
IC50 (Acetylcholinesterase [1]): 45 µM | IC50 (Acetylcholinesterase [2]): 45 µM

Reference: BindingDB's records for doi:10.1021/jm200691d (University of Bologna, 2011)
